Results taken from patent US11111247B2, “Pyrazolopyrimidine compounds and uses thereof” (Incyte Corporation, priority 2018, dated 2021).
Read-outs that look alike come from different tables or passages of the source.

Key:
FGFR2 (P) = FGFR2 (P) (Homo sapiens (Human), UniProt P21802); assay: FGFR Enzymatic Assay, FGFR2 phosphorylated; conditions: phosphorylated enzyme, ATP near or below Km
Method: (§1) The inhibitor potency of the exemplified compounds was determined in an enzyme discontinuous assay that measures peptide phosphorylation using FRET measurements to detect product formation. Inhibitors were serially diluted in DMSO and a volume of 0.2 μL was transferred to the wells of a 384-well plate. For the isoforms of FGFR (−1, −2, −3 wild-type and mutant isoforms, −4) including phosphorylated (P) and un-phosphorylated (UP) proteins, a 5 μL/well volume of enzyme diluted in assay buffer (50 mM HEPES, 10 mM MgCl2, 1 mM EGTA, 0.01% Tween-20, 5 mM DTT, pH 7.5) was added to the plate and pre-incubated with inhibitor for 5 to 15 minutes at ambient temperature. Appropriate controls (enzyme blank and enzyme with no inhibitor) were included on the plate. The reaction was initiated by the addition of a 5 μL/well volume containing both biotinylated [sequence] […] The plate was allowed to equilibrate for −10 minutes at ambient temperature before scanning on a PheraStar plate reader (BMG Labtech) instrument.
(§2) Either GraphPad prism or XLfit was used to analyze the data. The IC50 values were derived by fitting the data to a four parameter logistic equation producing a sigmoidal dose-response curve with a variable Hill coefficient. Prism equation: Y=Bottom+(Top−Bottom)/(1+10^((LogIC50−X)*Hill slope)); XLfit equation: Y=(A+((B−A)/(1+((X/C)^D)))) where X is the logarithm of inhibitor concentration and Y is the response.

FGFR3 (UP) = FGFR3 (UP) (Homo sapiens (Human), UniProt P22607); assay: FGFR Enzymatic Assay, FGFR3 un-phosphorylated
FGFR3 (UP), sequence (P22607 23-806): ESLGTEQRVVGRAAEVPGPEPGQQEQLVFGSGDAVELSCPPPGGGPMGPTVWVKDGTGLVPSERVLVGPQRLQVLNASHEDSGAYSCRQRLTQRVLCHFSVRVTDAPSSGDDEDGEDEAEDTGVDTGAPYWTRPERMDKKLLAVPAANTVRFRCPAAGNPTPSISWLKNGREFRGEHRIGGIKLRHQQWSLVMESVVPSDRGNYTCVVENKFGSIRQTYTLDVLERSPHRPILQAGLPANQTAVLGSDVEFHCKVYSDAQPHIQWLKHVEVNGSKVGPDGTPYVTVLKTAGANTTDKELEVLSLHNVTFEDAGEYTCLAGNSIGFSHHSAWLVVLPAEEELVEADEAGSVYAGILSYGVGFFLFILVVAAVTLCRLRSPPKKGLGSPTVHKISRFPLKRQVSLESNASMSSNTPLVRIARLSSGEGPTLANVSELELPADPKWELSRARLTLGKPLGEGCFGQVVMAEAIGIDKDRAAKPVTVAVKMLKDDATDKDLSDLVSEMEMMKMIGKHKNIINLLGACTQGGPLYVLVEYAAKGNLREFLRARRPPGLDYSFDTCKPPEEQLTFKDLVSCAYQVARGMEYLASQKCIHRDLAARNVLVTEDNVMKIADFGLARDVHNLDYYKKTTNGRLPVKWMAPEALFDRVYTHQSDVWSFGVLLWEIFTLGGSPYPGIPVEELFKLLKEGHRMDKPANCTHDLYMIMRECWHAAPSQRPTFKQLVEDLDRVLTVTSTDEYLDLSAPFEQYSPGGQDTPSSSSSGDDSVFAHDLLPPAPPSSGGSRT
Method: as §1, §2

FGFR1 (UP) = FGFR1 (UP) (Homo sapiens (Human), UniProt P11362); assay: FGFR Enzymatic Assay, FGFR1 un-phosphorylated
FGFR1 (UP), sequence (P11362 22-822): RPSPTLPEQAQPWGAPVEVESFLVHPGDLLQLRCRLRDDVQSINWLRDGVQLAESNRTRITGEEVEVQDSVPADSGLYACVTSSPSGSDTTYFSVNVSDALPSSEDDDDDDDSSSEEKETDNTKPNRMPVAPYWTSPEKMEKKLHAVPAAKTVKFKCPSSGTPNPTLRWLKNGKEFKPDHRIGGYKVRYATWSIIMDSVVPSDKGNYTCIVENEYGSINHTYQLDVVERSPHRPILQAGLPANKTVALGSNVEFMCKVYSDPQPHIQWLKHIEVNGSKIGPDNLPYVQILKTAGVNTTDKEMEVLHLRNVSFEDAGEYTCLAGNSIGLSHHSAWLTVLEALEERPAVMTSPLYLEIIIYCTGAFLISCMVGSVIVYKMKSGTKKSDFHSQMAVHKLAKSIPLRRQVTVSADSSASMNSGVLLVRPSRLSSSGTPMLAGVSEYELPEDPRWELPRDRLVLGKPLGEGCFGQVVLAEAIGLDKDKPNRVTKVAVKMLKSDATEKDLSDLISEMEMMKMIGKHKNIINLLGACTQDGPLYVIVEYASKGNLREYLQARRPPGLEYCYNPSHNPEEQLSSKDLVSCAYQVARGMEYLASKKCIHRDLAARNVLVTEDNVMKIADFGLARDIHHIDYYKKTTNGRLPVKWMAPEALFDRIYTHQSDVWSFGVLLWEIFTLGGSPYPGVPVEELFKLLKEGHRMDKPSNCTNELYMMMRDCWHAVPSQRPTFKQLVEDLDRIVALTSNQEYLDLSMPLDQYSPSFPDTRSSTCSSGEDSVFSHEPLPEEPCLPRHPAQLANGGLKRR

ALK2 (aa 147-end) = ALK2 (aa 147-end) (Homo sapiens (Human), UniProt Q04771); assay: ALK2 HTRF Assay; format: biochemical
ALK2 (aa 147-end), sequence (Q04771 147-509): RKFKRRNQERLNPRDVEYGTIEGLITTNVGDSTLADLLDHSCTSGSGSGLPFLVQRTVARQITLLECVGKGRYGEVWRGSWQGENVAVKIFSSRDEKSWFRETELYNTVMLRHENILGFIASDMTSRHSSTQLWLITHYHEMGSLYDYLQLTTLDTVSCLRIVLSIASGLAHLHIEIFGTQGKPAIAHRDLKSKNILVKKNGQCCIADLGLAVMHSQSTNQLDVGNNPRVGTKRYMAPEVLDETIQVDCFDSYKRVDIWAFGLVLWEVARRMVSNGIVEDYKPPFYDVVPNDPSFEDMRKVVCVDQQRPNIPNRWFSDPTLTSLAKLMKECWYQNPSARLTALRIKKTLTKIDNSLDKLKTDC
Method: The enzymatic assays were conducted in white 384-well polystyrene plates in a final volume of 8 μL. The inhibitors were serially diluted in DMSO and added to the plate wells prior to addition of the other reaction components. The assays were carried out at 25° C. in the assay buffer (50 mM HEPES, pH 7.1, 10% Glycerol, 0.01% Brij50, 10 mM MgCl2, 1 mM EGTA, 5 mM DTT, and 0.01% BSA), containing 50 nM LANCE Ultra ULight™-DNA Topoisomerase 2-alpha peptide (Perkin Elmer TRF0130), and 3 uM, 100 uM or 1 mM ATP (as specified). […] The reaction was read on a PHERAstar FS plate reader (BMG Labtech). IC50 determination was performed by fitting percent control activity versus the log of the inhibitor concentration using the IDBS XLFit and GraphPad Prism 5.0 software.

[1] = read-out: FGFR1 (UP) IC50, un-phosphorylated enzyme, ATP near or below Km

FGFR2 (P), sequence (P21802 22-821): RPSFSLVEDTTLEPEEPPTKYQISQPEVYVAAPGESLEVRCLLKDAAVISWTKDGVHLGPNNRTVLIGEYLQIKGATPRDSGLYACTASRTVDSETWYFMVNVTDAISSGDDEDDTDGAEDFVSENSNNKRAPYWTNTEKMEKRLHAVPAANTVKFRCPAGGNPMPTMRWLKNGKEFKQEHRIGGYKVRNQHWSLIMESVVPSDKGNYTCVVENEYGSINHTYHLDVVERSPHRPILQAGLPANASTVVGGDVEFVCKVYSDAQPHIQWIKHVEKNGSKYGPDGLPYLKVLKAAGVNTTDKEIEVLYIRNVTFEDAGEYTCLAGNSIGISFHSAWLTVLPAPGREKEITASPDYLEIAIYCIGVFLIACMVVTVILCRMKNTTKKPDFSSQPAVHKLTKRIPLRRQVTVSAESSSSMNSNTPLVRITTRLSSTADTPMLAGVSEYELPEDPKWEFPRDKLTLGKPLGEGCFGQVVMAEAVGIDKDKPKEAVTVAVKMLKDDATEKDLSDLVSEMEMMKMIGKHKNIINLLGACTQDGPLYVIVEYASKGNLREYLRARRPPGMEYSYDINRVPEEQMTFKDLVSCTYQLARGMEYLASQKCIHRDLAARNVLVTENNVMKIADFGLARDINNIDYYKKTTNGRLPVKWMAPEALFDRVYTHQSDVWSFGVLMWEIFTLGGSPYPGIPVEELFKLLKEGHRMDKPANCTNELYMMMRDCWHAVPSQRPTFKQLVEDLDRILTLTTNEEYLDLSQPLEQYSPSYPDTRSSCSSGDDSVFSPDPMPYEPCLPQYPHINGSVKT

SMILES	IC50 (FGFR3 (UP)) [nM]	IC50 (FGFR2 (P); FGFR2 (P) IC50 (nM)) [nM]	IC50 (ALK2 (aa 147-end); ALK2 3 μM IC50, 3 uM ATP) [nM]	IC50 (ALK2 (aa 147-end); ALK2 100 μM IC50, 100 uM ATP) [nM]	IC50 (FGFR2 (P); read-out: FGFR2 (P) IC50) [nM]	also measured
CN1CC2CCC(C1=O)N2c1ncc2[nH]nc(-c3cnn(C4CCOCC4)c3)c2n1 (stereo not shown) [Example 54, 3-Methyl-8-(3-(1-(tetrahydro-2H-pyran-4-yl)-1H-pyrazol-4-yl)-1H-pyrazolo[4,3-d]pyrimidin-5-yl)-3,8-diazabicyclo[3.2.1]octan-2-one]	–	–	–	–	< 100	–
COCCn1cc(-c2n[nH]c3cnc(N4C5CCC4C(=O)N(C)C5)nc23)cn1 (stereo not shown) [Example 53, 8-(3-(1-(2-Methoxyethyl)-1H-pyrazol-4-yl)-1H-pyrazolo[4,3-d]pyrimidin-5-yl)-3-methyl-3,8-diazabicyclo[3.2.1]octan-2-one]	–	–	–	–	< 100	–
CN1CC2CCC(C1=O)N2c1ncc2[nH]nc(-c3cnn(C4CCC4)c3)c2n1 (single isomer, unassigned) [Example 63, 8-(3-(1-Cyclobutyl-1H-pyrazol-4-yl)-1H-pyrazolo[4,3-d]pyrimidin-5-yl)-3-methyl-3,8-diazabicyclo[3.2.1]octan-2-one]	–	500 to 2000	–	–	–	–
CN1CCN(c2ncc3[nH]nc(-c4cnn(C)c4)c3n2)CC1=O [Example 36, 1-Methyl-4-(3-(1-methyl-1H-pyrazol-4-yl)-1H-pyrazolo[4,3-d]pyrimidin-5-yl)piperazin-2-one]	–	100 to 500	500 to 2000	500 to 2000	–	–
CN1CC2CCC(C1=O)N2c1ncc2[nH]nc(-c3cnn([C@H]4CC[C@H](O)CC4)c3)c2n1 (stereo partly drawn) [Example 55, 8-(3-(1-((1r,4S)-4-Hydroxycyclohexyl)-1H-pyrazol-4-yl)-1H-pyrazolo[4,3-d]pyrimidin-5-yl)-3-methyl-3,8-diazabicyclo[3.2.1]octan-2-one]	–	–	–	–	< 100	–
Cn1cc(-c2n[nH]c3cnc(N4CCN(C5CC5)C(=O)C4)nc23)cn1 [Example 37, 1-Cyclopropyl-4-(3-(1-methyl-1H-pyrazol-4-yl)-1H-pyrazolo[4,3-d]pyrimidin-5-yl)piperazin-2-one]	100 to 500	500 to 2000	–	–	–	IC50 (FGFR1 (UP); [1]): > 2000 nM
CN1CC2CCC(C1=O)N2c1ncc2[nH]nc(-c3cnn(CCN4CCOCC4)c3)c2n1 (stereo not shown) [Example 58, 3-Methyl-8-(3-(1-(2-morpholinoethyl)-1H-pyrazol-4-yl)-1H-pyrazolo[4,3-d]pyrimidin-5-yl)-3,8-diazabicyclo[3.2.1]octan-2-one]	–	–	500 to 2000	500 to 2000	< 100	–

Further lines, with some results ahead:

IC50 (FGFR3 (UP)) [nM]	IC50 (FGFR2 (P); FGFR2 (P) IC50 (nM)) [nM]	IC50 (ALK2 (aa 147-end); ALK2 3 μM IC50, 3 uM ATP) [nM]	IC50 (ALK2 (aa 147-end); ALK2 100 μM IC50, 100 uM ATP) [nM]	SMILES	IC50 (FGFR2 (P); read-out: FGFR2 (P) IC50) [nM]	also measured
100 to 500	500 to 2000	–	–	COCCN1CCN(c2ncc3[nH]nc(-c4cnn(C)c4)c3n2)C(C)C1=O (stereo not shown) [Example 48, 1-(2-Methoxyethyl)-3-methyl-4-(3-(1-methyl-1H-pyrazol-4-yl)-1H-pyrazolo[4,3-d]pyrimidin-5-yl)piperazin-2-one]	–	IC50 (FGFR1 (UP); [1]): > 2000 nM
100 to 500	100 to 500	–	–	CC1c2nccn2CCN1c1ncc2[nH]nc(-c3cnn(C)c3)c2n1 (stereo not shown) [Example 43, 3-(1-Methyl-1H-pyrazol-4-yl)-5-(8-methyl-5,6-dihydroimidazo[1,2-a]pyrazin-7(8H)-yl)-1H-pyrazolo[4,3-d]pyrimidine]	–	IC50 (FGFR1 (UP)): 500 to 2000 nM
–	–	100 to 500	500 to 2000	CC1C(=O)N(C)CCN1c1ncc2[nH]nc(-c3cnn(C)c3)c2n1 (stereo not shown) [Example 38, 1,3-Dimethyl-4-(3-(1-methyl-1H-pyrazol-4-yl)-1H-pyrazolo[4,3-d]pyrimidin-5-yl)piperazin-2-one]	< 100	–
